Molecular target: T1, Recombinant human JARID1B/KDM5B (Homo sapiens, UniProt Q9UGL1)
T1 construct: purchased Active Motif 31432; host or cells: Sf9 insect cells
Test: LANCE Ultra TR-FRET JARID1B (KDM5B) demethylase inhibition assay
Format: biochemical
Settings: 0.1 uM of test-compounds, FLAG-JARID1B, 500 nM biotinylated H3K4me3 peptide substrate, 30 min at room temperature
How it was run: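 FLAG-tagged JARID1B from Sf9 cells, pre-incubated 5 min with 0.1 uM compound (1% DMSO), then 500 nM biotinylated H3K4me3 peptide, 500 uM 2-OG, 25 uM Fe(II), 2 mM ascorbate in pH 7.5 Hepes buffer. After 30 min at room temperature, H3K4me2/1 product detected by TR-FRET (665/590 nm ratio).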

T1 sequence (Q9UGL1 whole entry): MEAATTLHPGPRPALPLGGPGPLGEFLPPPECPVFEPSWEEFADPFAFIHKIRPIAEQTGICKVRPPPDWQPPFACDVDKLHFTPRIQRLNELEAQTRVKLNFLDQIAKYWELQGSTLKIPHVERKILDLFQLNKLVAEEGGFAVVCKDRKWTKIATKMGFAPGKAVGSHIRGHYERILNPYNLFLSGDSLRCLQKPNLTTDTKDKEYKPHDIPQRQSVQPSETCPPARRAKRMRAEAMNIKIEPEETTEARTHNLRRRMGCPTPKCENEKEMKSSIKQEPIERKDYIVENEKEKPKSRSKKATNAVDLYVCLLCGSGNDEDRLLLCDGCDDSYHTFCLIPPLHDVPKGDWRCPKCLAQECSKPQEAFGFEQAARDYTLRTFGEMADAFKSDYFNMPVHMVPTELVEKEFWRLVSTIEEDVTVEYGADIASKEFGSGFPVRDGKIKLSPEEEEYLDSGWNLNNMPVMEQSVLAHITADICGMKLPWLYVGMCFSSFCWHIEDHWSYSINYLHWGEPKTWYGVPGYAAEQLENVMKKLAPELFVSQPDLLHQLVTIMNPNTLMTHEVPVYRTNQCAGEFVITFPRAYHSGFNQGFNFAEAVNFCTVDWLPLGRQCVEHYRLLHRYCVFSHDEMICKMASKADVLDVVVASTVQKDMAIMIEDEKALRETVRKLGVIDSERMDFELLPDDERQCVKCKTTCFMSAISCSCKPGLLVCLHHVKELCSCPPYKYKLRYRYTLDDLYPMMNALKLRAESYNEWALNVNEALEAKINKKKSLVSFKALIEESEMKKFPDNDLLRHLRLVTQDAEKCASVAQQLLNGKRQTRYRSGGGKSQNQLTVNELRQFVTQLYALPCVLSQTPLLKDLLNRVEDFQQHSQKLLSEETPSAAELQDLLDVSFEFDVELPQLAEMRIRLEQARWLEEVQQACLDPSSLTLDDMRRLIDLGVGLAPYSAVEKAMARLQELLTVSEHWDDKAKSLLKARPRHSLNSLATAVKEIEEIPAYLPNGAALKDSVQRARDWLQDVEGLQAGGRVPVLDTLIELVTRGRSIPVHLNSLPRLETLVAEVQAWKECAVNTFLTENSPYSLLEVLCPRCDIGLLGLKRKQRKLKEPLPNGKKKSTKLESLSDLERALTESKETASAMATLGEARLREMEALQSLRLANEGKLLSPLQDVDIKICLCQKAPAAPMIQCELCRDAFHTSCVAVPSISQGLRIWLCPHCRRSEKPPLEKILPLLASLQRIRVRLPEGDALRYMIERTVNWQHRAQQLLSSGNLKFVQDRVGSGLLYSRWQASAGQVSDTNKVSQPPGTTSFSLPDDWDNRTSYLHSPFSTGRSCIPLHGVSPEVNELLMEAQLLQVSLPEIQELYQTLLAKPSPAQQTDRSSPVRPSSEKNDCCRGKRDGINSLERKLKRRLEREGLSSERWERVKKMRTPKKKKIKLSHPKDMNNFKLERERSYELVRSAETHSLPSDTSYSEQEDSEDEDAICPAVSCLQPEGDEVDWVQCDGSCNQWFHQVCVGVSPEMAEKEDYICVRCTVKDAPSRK

inhibition at 0.1 µM	Compound
< 20%	CC1CCN(c2cccc(-c3nccc4c(=O)[nH]c(COc5ccc(F)c(Cl)c5)nc34)n2)CC1 [Compound 115, 2-((3-chloro-4-fluorophenoxy)methyl)-8-(6-(4-methylpiperidin-1-yl)pyridin-2-yl)pyrido[3,4-d]pyrimidin-4(3H)-one]
< 20%	O=c1[nH]c(COc2ccc(F)c(Cl)c2)nc2c(-c3cccc(N4CCOCC4)n3)nccc12 [Compound 116, 2-((3-chloro-4-fluorophenoxy)methyl)-8-(6-morpholinopyridin-2-yl)pyrido[3,4-d]pyrimidin-4(3H)-one]
20 to 50%	CCN(CC)CCCC(C)Nc1nc(-c2nccc3c(=O)[nH]c(COc4ccc(F)c(Cl)c4)nc23)cs1 (stereo not shown) [Compound 118, 2-((3-chloro-4-fluorophenoxy)methyl)-8-(2-((5-(diethylamino)pentan-2-yl)amino)thiazol-4-yl)pyrido[3,4-d]pyrimidin-4(3H)-one]
20 to 50%	O=c1[nH]c(COc2ccc(F)c(Cl)c2)nc2c(-c3csc(NCCCCN4CCCC4)n3)nccc12 [Compound 119, 2-((3-chloro-4-fluorophenoxy)methyl)-8-(2-((4-(pyrrolidin-1-yl)butyl)amino)thiazol-4-yl)pyrido[3,4-d]pyrimidin-4(3H)-one]
20 to 50%	CC(C)N(CCCCCNc1nc(-c2nccc3c(=O)[nH]c(COc4ccc(F)c(Cl)c4)nc23)cs1)C(C)C [Compound 120, 2-((3-chloro-4-fluorophenoxy)methyl)-8-(2-((5-(diisopropylamino)pentyl)amino)thiazol-4-yl)pyrido[3,4-d]pyrimidin-4(3H)-one]
20 to 50%	CCC[C@H](CO)Nc1nc(-c2nccc3c(=O)[nH]c(COc4ccc(F)c(Cl)c4)nc23)cs1 [Compound 121, (R)-2-((3-chloro-4-fluorophenoxy)methyl)-8-(2-((1-hydroxypentan-2-yl)amino)thiazol-4-yl)pyrido[3,4-d]pyrimidin-4(3H)-one]
< 20%	CCOC(=O)c1nc(-c2nccc3c(=O)[nH]c(COc4ccc(F)c(Cl)c4)nc23)cs1 [Compound 122, ethyl 4-(2-((3-chloro-4-fluorophenoxy)methyl)-4-oxo-3,4-dihydropyrido[3,4-d]pyrimidin-8-yl)thiazole-2-carboxylate]
< 20%	CC(CNc1nc(-c2nccc3c(=O)[nH]c(COc4ccc(F)c(Cl)c4)nc23)cs1)Oc1ccccc1 (stereo not shown) [Compound 123, 2-((3-chloro-4-fluorophenoxy)methyl)-8-(2-((2-phenoxypropyl)amino)thiazol-4-yl)pyrido[3,4-d]pyrimidin-4(3H)-one]
< 20%	O=C(Nc1nc(-c2nccc3c(=O)[nH]c(COc4ccc(F)c(Cl)c4)nc23)cs1)c1ccccc1 [Compound 124, N-(4-(2-((3-chloro-4-fluorophenoxy)methyl)-4-oxo-3,4-dihydropyrido[3,4-d]pyrimidin-8-yl)thiazol-2-yl)benzamide]
≥ 50%	O=c1[nH]c(COc2ccc(F)cc2)nc2c(-c3csc(NCCO)n3)nccc12 [Compound 125, 2-((4-fluorophenoxy)methyl)-8-(2-((2-hydroxyethyl)amino)thiazol-4-yl)pyrido[3,4-d]pyrimidin-4(3H)-one]
≥ 50%	CN(C)CCNc1nc(-c2nccc3c(=O)[nH]c(COc4ccc(F)cc4)nc23)cs1 [Compound 126, 8-(2-((2-(dimethylamino)ethyl)amino)thiazol-4-yl)-2-((4-fluorophenoxy)methyl) pyrido[3,4-d]pyrimidin-4(3H)-one]
≥ 50%	CN1CCC(Nc2nc(-c3nccc4c(=O)[nH]c(COc5ccc(F)cc5)nc34)cs2)CC1 [Compound 127, 2-((4-fluorophenoxy)methyl)-8-(2-((1-methylpiperidin-4-yl)amino)thiazol-4-yl)pyrido[3,4-d]pyrimidin-4(3H)-one]
< 20%	O=c1[nH]c(COc2ccc(F)cc2)nc2c(-c3csc(NC4CCN(Cc5ccccc5)CC4)n3)nccc12 [Compound 128, 8-(2-((1-benzylpiperidin-4-yl)amino)thiazol-4-yl)-2-((4-fluorophenoxy)methyl) pyrido[3,4-d]pyrimidin-4(3H)-one]
